Laboratory results from US11498899B2, “Nitrone herbicides” (FMC Corporation, priority 2016, dated 2022).

What was measured:
[1] = tested on: barnyardgrass (Echinochloa crus-galli); assay: Test A preemergence, visual injury rating 0-100 (0 no effect, 100 complete control); assay type: in vivo
[2] = tested on: foxtail, giant (giant foxtail, Setaria faberii); assay: Test A preemergence, visual injury rating 0-100; assay type: in vivo
kochia (Kochia scoparia) [3] = assay: Test A preemergence, visual injury rating 0-100; assay type: in vivo
[4] = tested on: pigweed (Amaranthus retroflexus); assay: Test A preemergence, visual injury rating 0-100; assay type: in vivo
[5] = tested on: ragweed (common ragweed, Ambrosia elatior); assay: Test A preemergence, visual injury rating 0-100; assay type: in vivo
[6] = tested on: ryegrass, Italian (Italian ryegrass, Lolium multiflorum); assay: Test A preemergence, visual injury rating 0-100; assay type: in vivo
[7] = tested on: barnyardgrass (Echinochloa crus-galli); assay: Test A postemergence, visual injury rating 0-100; assay type: in vivo; conditions: 0 to 100 scale
[8] = tested on: blackgrass (Alopecurus myosuroides); assay: Test A postemergence, visual injury rating 0-100; assay type: in vivo; conditions: 0 to 100 scale
corn (Zea mays) = assay: Test A postemergence, visual injury rating 0-100; assay type: in vivo; conditions: 0 to 100 scale
[9] = tested on: foxtail, giant (giant foxtail, Setaria faberii); assay: Test A postemergence, visual injury rating 0-100; assay type: in vivo; conditions: 0 to 100 scale
[10] = tested on: galium (catchweed bedstraw, Galium aparine); assay: Test A postemergence, visual injury rating 0-100; assay type: in vivo; conditions: 0 to 100 scale
kochia (Kochia scoparia) [11] = assay: Test A postemergence, visual injury rating 0-100; assay type: in vivo; conditions: 0 to 100 scale
[12] = tested on: pigweed (Amaranthus retroflexus); assay: Test A postemergence, visual injury rating 0-100; assay type: in vivo; conditions: 0 to 100 scale
[13] = tested on: ragweed (common ragweed, Ambrosia elatior); assay: Test A postemergence, visual injury rating 0-100; assay type: in vivo; conditions: 0 to 100 scale
[14] = tested on: ryegrass, Italian (Italian ryegrass, Lolium multiflorum); assay: Test A postemergence, visual injury rating 0-100; assay type: in vivo; conditions: 0 to 100 scale
[15] = tested on: wheat (Triticum aestivum); assay: Test A postemergence, visual injury rating 0-100; assay type: in vivo; conditions: 0 to 100 scale
[16] = tested on: ducksalad (Heteranthera limosa); assay: Test B flooded paddy test, visual rating 0-100; conditions: Flood, 250 g ai/ha, applied to paddy water, rated after 13 to 15 days
[17] = tested on: barnyardgrass (Echinochloa crus-galli); assay: Test B flooded paddy test, visual rating 0-100; conditions: Flood, 250 g ai/ha, applied to paddy water, rated after 13 to 15 days
rice (Oryza sativa) = assay: Test B flooded paddy test, visual rating 0-100 (0 no effect, 100 complete control); conditions: Flood, 250 g ai/ha, applied to paddy water, rated after 13 to 15 days

Row | Structure (SMILES) | Barnyardgrass plant response rating (0 to 100 scale) ([1]; 125 g ai/ha) | Barnyardgrass plant response rating (0 to 100 scale) ([1]; 500 g ai/ha) | Foxtail, Giant plant response rating (0 to 100 scale) ([2]; 125 g ai/ha) | Foxtail, Giant plant response rating (0 to 100 scale) ([2]; 500 g ai/ha) | Kochia plant response rating (0 to 100 scale) (kochia (Kochia scoparia) [3]; 125 g ai/ha) | Kochia plant response rating (0 to 100 scale) (kochia (Kochia scoparia) [3]; 500 g ai/ha) | Pigweed plant response rating (0 to 100 scale) ([4]; 125 g ai/ha) | Pigweed plant response rating (0 to 100 scale) ([4]; 500 g ai/ha) | Ragweed plant response rating (0 to 100 scale) ([5]; 125 g ai/ha) | Ragweed plant response rating (0 to 100 scale) ([5]; 500 g ai/ha) | Ryegrass, Italian plant response rating (0 to 100 scale) ([6]; 500 g ai/ha) | Barnyardgrass plant response rating ([7]; 125 g ai/ha) | Barnyardgrass plant response rating ([7]; 500 g ai/ha) | Blackgrass plant response rating ([8]; 125 g ai/ha) | Blackgrass plant response rating ([8]; 500 g ai/ha) | Corn plant response rating (corn (Zea mays); 125 g ai/ha) | Corn plant response rating (corn (Zea mays); 500 g ai/ha) | Foxtail, Giant plant response rating ([9]; 125 g ai/ha) | Foxtail, Giant plant response rating ([9]; 500 g ai/ha) | Galium plant response rating ([10]; 125 g ai/ha) | also measured
1 | CC1=[N+]([O-])C(C(=O)Nc2cccc(F)c2F)C(c2ccc(C(F)(F)F)cn2)C1 (racemic) [Compound 88] | 20 | 90 | 20 | 90 | 10 | 70 | 0 | 60 | 0 | 80 | 0 | 0 | 50 | 10 | 30 | 0 | 0 | 0 | 10 | 20 | Ryegrass, Italian plant response rating (0 to 100 scale) ([6]; 125 g ai/ha): 0; Galium plant response rating ([10]; 500 g ai/ha): 50; Kochia plant response rating (kochia (Kochia scoparia) [11]; 125 g ai/ha): 0; Kochia plant response rating (kochia (Kochia scoparia) [11]; 500 g ai/ha): 30; Pigweed plant response rating ([12]; 125 g ai/ha): 0; Pigweed plant response rating ([12]; 500 g ai/ha): 0; Ragweed plant response rating ([13]; 125 g ai/ha): 0; Ragweed plant response rating ([13]; 500 g ai/ha): 10; Ryegrass, Italian plant response rating ([14]; 125 g ai/ha): 0; Ryegrass, Italian plant response rating ([14]; 500 g ai/ha): 0; Wheat plant response rating ([15]; 125 g ai/ha): 0; Wheat plant response rating ([15]; 500 g ai/ha): 0; Ducksalad plant response rating (0 to 100 scale) [16]: 100; Barnyardgrass plant response rating (0 to 100 scale) [17]: 15; Rice plant response rating (0 to 100 scale) (rice (Oryza sativa)): 15
2 | CC1=[N+]([O-])C(C(=O)Nc2cccc(F)c2F)C(c2ccc(C(F)(F)F)c(Cl)c2)C1 (racemic) [Compound 102] | 80 | 90 | 90 | 90 | 10 | 80 | 60 | 90 | 50 | 80 | 90 | 70 | 80 | 60 | 80 | 40 | 40 | 70 | 80 | 50 | Ryegrass, Italian plant response rating (0 to 100 scale) ([6]; 125 g ai/ha): 70; Galium plant response rating ([10]; 500 g ai/ha): 70; Kochia plant response rating (kochia (Kochia scoparia) [11]; 125 g ai/ha): 30; Kochia plant response rating (kochia (Kochia scoparia) [11]; 500 g ai/ha): 40; Pigweed plant response rating ([12]; 125 g ai/ha): 30; Pigweed plant response rating ([12]; 500 g ai/ha): 70; Ragweed plant response rating ([13]; 125 g ai/ha): 20; Ragweed plant response rating ([13]; 500 g ai/ha): 50; Ryegrass, Italian plant response rating ([14]; 125 g ai/ha): 40; Ryegrass, Italian plant response rating ([14]; 500 g ai/ha): 50; Wheat plant response rating ([15]; 125 g ai/ha): 20; Wheat plant response rating ([15]; 500 g ai/ha): 40; Ducksalad plant response rating (0 to 100 scale) [16]: 0; Barnyardgrass plant response rating (0 to 100 scale) [17]: 0; Rice plant response rating (0 to 100 scale) (rice (Oryza sativa)): 0
3 | CC1=[N+]([O-])C(C(=O)Nc2cccc(F)c2F)C(c2cc(C)cc(F)c2)C1 (racemic) [Compound 103] | 90 | 90 | 90 | 100 | 10 | 80 | 30 | 70 | 60 | 90 | 90 | 80 | 90 | 80 | 70 | 50 | 60 | 80 | 90 | 0 | Galium plant response rating ([10]; 500 g ai/ha): 50; Kochia plant response rating (kochia (Kochia scoparia) [11]; 125 g ai/ha): 0; Kochia plant response rating (kochia (Kochia scoparia) [11]; 500 g ai/ha): 30; Pigweed plant response rating ([12]; 125 g ai/ha): 0; Pigweed plant response rating ([12]; 500 g ai/ha): 50; Ragweed plant response rating ([13]; 125 g ai/ha): 40; Ragweed plant response rating ([13]; 500 g ai/ha): 40; Ryegrass, Italian plant response rating ([14]; 125 g ai/ha): 50; Ryegrass, Italian plant response rating ([14]; 500 g ai/ha): 70; Wheat plant response rating ([15]; 125 g ai/ha): 20; Wheat plant response rating ([15]; 500 g ai/ha): 70; Ducksalad plant response rating (0 to 100 scale) [16]: 80; Barnyardgrass plant response rating (0 to 100 scale) [17]: 65; Rice plant response rating (0 to 100 scale) (rice (Oryza sativa)): 0
4 | CC1=[N+]([O-])C(C(=O)Nc2cccc(F)c2F)C(c2ccc(Cl)c(C(F)(F)F)c2)C1 (racemic) [Compound 104] | 80 | 90 | 90 | 90 | 30 | 70 | 10 | 80 | 20 | 60 | 90 | 60 | 80 | 70 | 70 | 70 | 60 | 20 | 80 | 30 | Galium plant response rating ([10]; 500 g ai/ha): 70; Kochia plant response rating (kochia (Kochia scoparia) [11]; 125 g ai/ha): 50; Kochia plant response rating (kochia (Kochia scoparia) [11]; 500 g ai/ha): 70; Pigweed plant response rating ([12]; 125 g ai/ha): 30; Pigweed plant response rating ([12]; 500 g ai/ha): 70; Ragweed plant response rating ([13]; 125 g ai/ha): 20; Ragweed plant response rating ([13]; 500 g ai/ha): 70; Ryegrass, Italian plant response rating ([14]; 125 g ai/ha): 20; Ryegrass, Italian plant response rating ([14]; 500 g ai/ha): 70; Wheat plant response rating ([15]; 125 g ai/ha): 10; Wheat plant response rating ([15]; 500 g ai/ha): 50; Ducksalad plant response rating (0 to 100 scale) [16]: 40; Barnyardgrass plant response rating (0 to 100 scale) [17]: 40; Rice plant response rating (0 to 100 scale) (rice (Oryza sativa)): 0
